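Abbreviation: GI50, concentration required for 50% inhibition of growth. TGI denotes the concentration required for complete inhibition of growth.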
Tests used:
Assay in all cases: DTP human tumour cell line panel, 384-well format
[1] = test system: HL-60(TB) leukemia
[2] = test system: SK-MEL-28 melanoma
[3] = test system: COLO 205 colon
[4] = test system: 786-0 renal
[5] = test system: HS 578T breast
[6] = test system: NCI-H226 lung
[7] = test system: PC-3 prostate
[8] = test system: T-47D breast
[9] = test system: SK-OV-3 ovarian
[10] = test system: SNB-19 CNS
[11] = test system: HT29 colon
[12] = test system: MDA-MB-435 melanoma
[13] = test system: SF-539 CNS
[14] = test system: SNB-75 CNS
[15] = test system: LOX IMVI melanoma
[16] = test system: A549 NSCLC
[17] = test system: IGROV1 ovarian
[18] = test system: HCT-15 colon
[19] = test system: NCI/ADR-RES ovarian
[20] = test system: NCI-H322M lung
[21] = test system: MCF7 breast
[22] = test system: DU-145 prostate
[23] = test system: UO-31 renal
[24] = test system: RXF 393 renal
[25] = test system: CCRF-CEM leukemia
[26] = test system: SW-620 colon
[27] = test system: K-562 leukemia
[28] = test system: BT-549 breast
[29] = test system: TK-10 renal
[30] = test system: OVCAR-3 ovarian
[31] = test system: SN12C renal
[32] = test system: OVCAR-5 ovarian
[33] = test system: KM12 colon
[34] = test system: UACC-257 melanoma
[35] = test system: SR leukemia
[36] = test system: MOLT-4 leukemia
[37] = test system: HOP-92 NSCLC
[38] = test system: MALME-3M melanoma
[39] = test system: ACHN renal
[40] = test system: A498 renal
[41] = test system: CAKI-1 renal
[42] = test system: SF-295 CNS
[43] = test system: NCI-H460 NSCLC
[44] = test system: NCI-H522 lung
[45] = test system: RPMI-8226 leukemia
[46] = test system: M14 melanoma
[47] = test system: SK-MEL-5 melanoma
[48] = test system: EKVX NSCLC
[49] = test system: OVCAR-8 ovarian
[50] = test system: MDA-MB-231 breast
[51] = test system: HOP-62 NSCLC
[52] = test system: OVCAR-4 ovarian
[53] = test system: SF-268 CNS
[54] = test system: MDA-MB-468 breast
[55] = test system: UACC-62 melanoma
[56] = test system: NCI-H23 lung
[57] = test system: HCC-2998 colon
[58] = test system: U251 glioblastoma

CN(C)CC(=O)N1CCC(c2ccc(NC(=O)c3ncc(C#N)[nH]3)c(C3=CCCCC3)c2)CC1
GI50 [1]: 2.06 µM
TGI [1]: 4.49 µM
GI50 [2]: 1.8 µM
TGI [2]: 3.28 µM
GI50 [3]: 3.56 µM
TGI [3]: 11.7 µM
GI50 [4]: 1.93 µM
TGI [4]: 4.41 µM
GI50 [5]: 2.66 µM
TGI [5]: 6.73 µM
GI50 [6]: 3.85 µM
TGI [6]: 14.2 µM
GI50 [7]: 5.35 µM
TGI [7]: 17.3 µM
GI50 [8]: 12.1 µM
TGI [8]: 24.5 µM
GI50 [9]: 3.62 µM
TGI [9]: 13.3 µM
GI50 [10]: 9.85 µM
TGI [10]: 21.5 µM
GI50 [11]: 1.71 µM
TGI [11]: 3.26 µM
GI50 [12]: 3 µM
TGI [12]: 9.64 µM
GI50 [13]: 3.02 µM
TGI [13]: 13 µM
GI50 [14]: 4.4 µM
TGI [14]: 15.6 µM
GI50 [15]: 3.32 µM
TGI [15]: 10.6 µM
GI50 [16]: 4.25 µM
TGI [16]: 14.8 µM
GI50 [17]: 10.3 µM
TGI [17]: 22 µM
GI50 [18]: 1.82 µM
TGI [18]: 3.58 µM
GI50 [19]: 15.7 µM
TGI [19]: 29.1 µM
GI50 [20]: 7.63 µM
TGI [20]: 20.1 µM
GI50 [21]: 2.72 µM
TGI [21]: 10.7 µM
GI50 [22]: 10.4 µM
TGI [22]: 22.2 µM
GI50 [23]: 12.1 µM
TGI [23]: 24.7 µM
GI50 [24]: 5.03 µM
TGI [24]: 17.2 µM
GI50 [25]: 3.27 µM
TGI [25]: 10.7 µM
GI50 [26]: 10.4 µM
TGI [26]: 22.2 µM
GI50 [27]: 2.97 µM
TGI [27]: 11.3 µM
GI50 [28]: 2.4 µM
TGI [28]: 9.81 µM
GI50 [29]: 8.66 µM
TGI [29]: 20.8 µM
GI50 [30]: 10.6 µM
TGI [30]: 22.4 µM
GI50 [31]: 1.51 µM
TGI [31]: 13 µM
GI50 [32]: 4.13 µM
TGI [32]: 13.8 µM
GI50 [33]: 0.141 µM
TGI [33]: 3.52 µM
GI50 [34]: 1.98 µM
TGI [34]: 3.52 µM
GI50 [35]: 2.44 µM
TGI [35]: 5.54 µM
GI50 [36]: 2.61 µM
TGI [36]: 7.17 µM
GI50 [37]: 1.43 µM
TGI [37]: 10.8 µM
GI50 [38]: 1.66 µM
TGI [38]: 3.57 µM
GI50 [39]: 7.59 µM
TGI [39]: 20 µM
GI50 [40]: 2.04 µM
TGI [40]: 3.91 µM
GI50 [41]: 4.11 µM
TGI [41]: 14.9 µM
GI50 [42]: 3.47 µM
TGI [42]: 11.3 µM
GI50 [43]: 5.42 µM
TGI [43]: 16.8 µM
GI50 [44]: 10.6 µM
TGI [44]: 22.4 µM
GI50 [45]: 4.07 µM
TGI [45]: 15.3 µM
GI50 [46]: 1.89 µM
TGI [46]: 3.71 µM
GI50 [47]: 1.7 µM
TGI [47]: 4.34 µM
GI50 [48]: 12.5 µM
TGI [48]: 25 µM
GI50 [49]: 10.6 µM
TGI [49]: 22.4 µM
GI50 [50]: 6.96 µM
TGI [50]: 19.2 µM
GI50 [51]: 4.18 µM
TGI [51]: 14.8 µM
GI50 [52]: 15.5 µM
TGI [52]: 28.9 µM
GI50 [53]: 6.84 µM
TGI [53]: 19.4 µM
GI50 [54]: 4.3 µM
TGI [54]: 9.35 µM
GI50 [55]: 1.87 µM
TGI [55]: 3.6 µM
GI50 [56]: 2.93 µM
TGI [56]: 10.7 µM
GI50 [57]: 2.48 µM
TGI [57]: 5.33 µM
GI50 [58]: 5.48 µM
TGI [58]: 17.6 µM

Source: PubChem BioAssay (NCI)
